# Measurements published in patent US20100291181A1, “THERAPEUTIC DEVICES FOR PATTERNED CELL GROWTH” (RUTGERS, THE STATE UNIVERSITY OF NEW JERSEY, priority 2002, published 2010).
# Tests used:
# [1] = tested on: dorsal root ganglia or dissociated neurons; experiment: Dorsal root ganglia or dissociated neurons plated on laminin pattern; assay type: cell-based, chick; details: pattern of lines, PMMA substrate
# Description: Biologically active molecules were stably adsorbed onto a polymeric substrate without chemical modification of the substrate and without the use of linkers. A nondegradable polymer, poly(methyl methylacrylate) (PMMA, […] thickness, Goodfellows) and a degradable polymer, such as poly(hydroxybutyrate (PHB), polycaprolactone or polycaprolactam), were used as polymeric substrates for application of a micropattern of laminin. See FIG. 2 for the general procedure. For these experiments, the polymers were compressed into thin films of 200 μm and cut to the size of coverslips. After activation, polymeric substrates were evaluated via x-ray photoelectron spectroscopy, and/or scanning electron microscopy. […] After laminin absorption, its deposition was determined by incubating the prepared slips with rabbit anti-laminin affinity isolated antibody and FITC-conjugated goat anti-rabbit IgG (see FIG. 3).
# Dorsal root ganglia dissected from seven-day old chick embryos were either directly plated onto the patterned substrate or dissociated into individual neurons and plated. […]
# The laminin stamped PMMA squares were rinsed with Hank's balanced saline solution and plated with dorsal root ganglia or dissociated neurons in minimal, serum-free media. The samples were incubated at 37° C. for 24 to 48 hours, imaged with a Zeiss laser scanning confocal microscope, and the images analyzed for pattern adherence. […]
# [2] = tested on: primary rat Schwann cells; experiment: Schwann cells plated on pattern of laminin lines, orientation analysis; assay type: cell-based
# Experimental: Purified primary rat Schwann cells were obtained from Prof. M. B. Bunge, University of Miami, the Miami Project to Cure Paralysis, and maintained in tissue culture flasks with a growth media consisting of Dulbecco's Modified Eagle's Medium (DMEM, Sigma), 10% v/v fetal bovine serum (Gibco), L-glutamine (2 mM, BioWhittaker), penicillin/streptomycin (P/S, 50 U/mL/50 μg/mL, BioWhittaker), 10 μg/mL bovine pituitary extract (Collaborative), and 10 μM forskolin (Sigma).
# Schwann cells were rinsed with phosphate buffered saline (PBS, BioWhittaker) and incubated with trypsin ([…], Sigma) for 3 min. An equal amount of serum containing media was added to deactivate the trypsin and the cells were concentrated by centrifugation. […]
# The samples were imaged on a Zeiss LSM 410 confocal laser-scanning microscope (CLSM) with a computer controlled laser scanning assembly attached to the microscope using a 20× phase contrast objective in fluorescence mode. An Omnichrome 3 line Argon/Krypton laser (488, 568, 647 nm) was used as the excitation source for double fluorescence measurements, with excitation at 488 nm and 568 nm and emission at 512 nm and 605 nm. […]
# Multiple images were taken randomly per sample and analyzed by Image Pro Plus image analysis software (Media Cybernetics). […] Major and minor axes were calculated as well as the angle created by the major axis and the direction of patterning (FIG. 7). […]
substance,measurement,setting,value
laminin,neuronal process outgrowth along the pattern,[1],most neuronal processes adhere to and grow along the lines of the laminin pattern
same,orientation of Schwann cells relative to direction of laminin patterning (0°),"[2]; monolayer, ellipse fitting, FIG. 7",majority of the cells are oriented at 0°
same,"process outgrowth along the pattern, Schwann cells","[2]; pattern of lines, FIG. 5",most neuronal processes adhere to and grow along the lines of the laminin pattern
